Measurements from the SangsterLogP compilation.

How the values were obtained:
[1] = method code SF-AS, from DOI: 10.1023/a:1021720128725
[2] = method code SF-AS, from DOI: 10.2307/3574491, PMID: 940937; details: pH 7.4
[3] = method code SF, from ISBN: 9780444415486
[4] = not given; remark: listed apart in the source
[5] = not given; remark: listed apart in the source
[6] = method code SF-HPLC, from DOI: 10.1021/js980008v, PMID: 9758683
[7] = not given; remark: listed apart in the source
[8] = method code SF, from ISBN: 9780815518525; details: pH 7.0
[9] = pH 6.0
[10] = not given; remark: listed apart in the source
[11] = not given; remark: listed apart in the source
[12] = method code SF-GLC, from DOI: 10.1897/1552-8618(1989)8[499:dowpcf]2.0.co;2
[13] = not given; remark: listed apart in the source
[14] = method code SF-HPLC, from DOI: 10.13422/j.cnki.syfjx.2013.03.051
[15] = not given; remark: listed apart in the source
[16] = method code SF, from ISBN: 9780948404450
[17] = not given; remark: listed apart in the source

## Cc1cn2c(=O)c3c(nc2[nH]1)N(COCCO)C(Br)N3 (stereo not given)
[1]
  logP: -0.11

## OCCN(CCO)CCO
other
  logP: -1.32

## COC(=O)CCn1c(C)cnc1[N+](=O)[O-]
[2]
  logD: -0.25

## CN1C(=O)OC(c2ccccc2)C1=O (stereo not given)
[3]
  logP: 1.06

## CC(=O)Nc1cc(C(C)(C)C)c(O)cc1C
[4]
  logP: 2.18

## Oc1ccccc1
[5]
  logP: 1.6

## CC(=O)OCN1C(=O)NC(c2ccccc2)(c2ccccc2)C1=O
[6]
  logP: 2.8

## c1ccc(Oc2cccc(-c3ccccc3)c2)cc1
other
  logP: 5.55

## Nc1nc2c(ncn2COCCO)c(=O)[nH]1
[1]
  logP: -1.44

## O=C(O)c1ccccc1C(=O)Nc1cccc2ccccc12
[7]
  logP: 3

## O=C1NC(=O)C(c2ccccc2)(c2ccccc2)N1
[6]
  logP: 2.21

## CNC(=O)N(C)c1nnc(C(C)(C)C)s1
[8]
  logD: 1.79

## CCCC(=O)OCN1C(=O)NC(c2ccccc2)(c2ccccc2)C1=O
[6]
  logP: 3.9

## CC(C)(C)c1cn2c(=O)c3ncn(COCCO)c3nc2[nH]1
[1]
  logP: 0.62

## O=C1NC(c2ccccc2)(c2ccccc2)C(=O)N1CO
[6]
  logP: 2.23

## CC(=O)[C@H]1CC[C@H]2[C@@H]3CCC4=CC(=O)CC[C@]4(C)[C@H]3CC[C@]12C
[9]
  logD: 3.7

## Nc1ccccc1
[10]
  logP: 1.08

## CSc1nc(NC(C)C)nc(NC(C)C)n1
[11]
  logP: 3.36

## Clc1cc(Cl)c(Cl)cc1Cl
[12]
  logP: 4.6

## CCc1ccc2c(c1)C(=O)c1ccccc1C2=O
[12]
  logP: 4.37

## OCCOCCOCCOCCO
other
  logP: -1.38

## Cc1ccccc1/C=C/[N+](=O)[O-]
[13]
  logP: 2.63

## O=C1C=CC[C@@H]2[C@H]3CCC[N+]4([O-])CCC[C@@H](CN12)[C@@H]34 (stereo not given in full)
[14]
  logP: -0.44

## CCCCNCCCC
other
  logP: 2.68

## O=[N+]([O-])c1nccn1CC(O)CO (stereo not given)
[2]
  logD: -0.96

## N#Cc1cc(Br)c(O)c(Br)c1
[7]
  logP: 2.7

## O=C(O)c1c(O)cccc1O
[15]
  logP: 1.23

## CCS(=O)c1sc(C#N)c(Cl)c1C#N (stereo not given)
[16]
  logP: 2.54

## CCS(=O)CCSP(=O)(OC)OC (stereo not given)
[17]
  logP: -0.74

## Cc1ccccc1C(=N)c1ccccc1C
[4]
  logP: 3.31
